Patent US10294236B2, “Compounds as rearranged during transfection (RET) inhibitors” (GLAXOSMITHKLINE INTELLECTUAL PROPERTY DEVELOPMENT LIMITED, priority 2014, dated 2019)
pIC50: −log10 of the molar value. Where a name gives a salt, the structure may show the parent alone.

Target: T1, Human RET kinase cytoplasmic domain (Homo sapiens, UniProt P07949)
T1 construct: made in house
T1 sequence (P07949 658-1114): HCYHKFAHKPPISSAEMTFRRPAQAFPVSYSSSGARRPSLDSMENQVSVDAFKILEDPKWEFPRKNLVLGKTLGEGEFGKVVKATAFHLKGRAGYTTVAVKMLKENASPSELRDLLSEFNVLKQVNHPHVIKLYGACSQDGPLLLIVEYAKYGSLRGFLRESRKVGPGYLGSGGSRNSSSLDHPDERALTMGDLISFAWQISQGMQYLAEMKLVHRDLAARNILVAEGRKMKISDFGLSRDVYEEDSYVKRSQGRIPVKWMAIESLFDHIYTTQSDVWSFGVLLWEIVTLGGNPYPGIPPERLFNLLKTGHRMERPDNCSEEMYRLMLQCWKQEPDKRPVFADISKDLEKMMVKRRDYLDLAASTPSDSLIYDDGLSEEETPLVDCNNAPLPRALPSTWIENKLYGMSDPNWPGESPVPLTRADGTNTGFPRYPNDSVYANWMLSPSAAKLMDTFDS
Assay: RET kinase enzymatic assay
Format: biochemical
Protocol: GST-RET was purified using glutathione sepharose chromatography. The RET kinase enzymatic assay was performed in a total volume of 10 uL with increasing concentrations of RET kinase inhibitor as a singlet in a 384 well format as follows: RET inhibitor compound plates are prepared by adding 100 nL of RET inhibitor at different concentrations to a 384-well plate. 5 μL/well of a 2× enzyme mix (50 mM HEPES (4-(2-hydroxyethyl)-1-piperazineethanesulfonic acid); 1 mM CHAPS (3-[(3-cholamidopropyl)dimethylammonio]-1-propanesulfonate); 0.1 mg/mL BSA (bovine serum albumin); 1 mM DTT (dithiothreitol); 0.2 nM RET kinase) was added to the 384-well plate and incubated for 30 minutes at 23° C. 5 µL/well of a 2× substrate mix (50 mM HEPES; 1 mM CHAPS; 0.1 mg/mL BSA; 20 μM adenosine triphosphate; 20 mM MgCl2 and 1 μM biotinylated peptide substrate) was added and incubated for 1 hour at 23° C. […] IC50s were fitted using GraphPad Prism to a sigmoidal dose response.

pIC50, > 7.00:
CCOc1cc(-c2ccc(NC(=O)Nc3ccc(CN4CCN(CC)CC4)c(C(F)(F)F)c3)c(C(F)F)c2)c[nH]c1=O [Example 30, 1-(2-(Difluoromethyl)-4-(5-ethoxy-6-oxo-1,6-dihydropyridin-3-yl)phenyl)-3-(4-((4-ethylpiperazin-1-yl)methyl)-3-(trifluoromethyl)phenyl)urea]
CCOc1cc(-c2ncc(NC(=O)Nc3ccc(C4(CO)CC4)c(C(F)(F)F)c3)c(C)n2)c[nH]c1=O [Example 66, 1-(2-(5-Ethoxy-6-oxo-1,6-dihydropyridin-3-yl)-4-methylpyrimidin-5-yl)-3-(4-(1-(hydroxymethyl)cyclopropyl)-3-(trifluoromethyl)phenyl)urea hydrochloride]
CCOc1cc(-c2ncc(NC(=O)Nc3cc(C(F)(F)F)c(CN4CCN(CC)CC4)cc3F)cn2)c[nH]c1=O [Example 183, 1-(2-(5-Ethoxy-6-oxo-1,6-dihydropyridin-3-yl)pyrimidin-5-yl)-3-(4-((4-ethylpiperazin-1-yl)methyl)-2-fluoro-5-(trifluoromethyl)phenyl)urea trihydrochloride]
CCOc1cc(=O)[nH]cc1-c1ncc(NC(=O)Nc2cnc(C(C)(C)O)c(C(F)(F)F)c2)c(C)n1 [Example 28, 1-(2-(4-Ethoxy-6-oxo-1,6-dihydropyridin-3-yl)-4-methylpyrimidin-5-yl)-3-(6-(2-hydroxypropan-2-yl)-5-(trifluoromethyl)pyridin-3-yl)urea]
CNc1cc(-c2ccc(NC(=O)Nc3ccc(OC4(C)COC4)c(C(F)(F)F)c3)c(F)c2)c[nH]c1=O [Example 95]
CCOc1cc(-c2ncc(NC(=O)Nc3cc(OCCN(C)C)cc(C(F)(F)F)c3)cn2)c[nH]c1=O [Example 178, 1-(3-(2-(dimethylamino)ethoxy)-5-(trifluoromethyl)phenyl)-3-(2-(5-ethoxy-6-oxo-1,6-dihydropyridin-3-yl)pyrimidin-5-yl)urea dihydrochloride]
CCOc1cc(-c2ccc(NC(=O)Nc3ccc(CCN(C)C)c(C(F)(F)F)c3)c(F)c2)c[nH]c1=O [Example 165]
CCOc1ccc(NC(=O)Nc2ccc(-c3c[nH]c(=O)c(OCC)c3)cc2F)cc1C(F)(F)F [Example 80]
CCOc1cc(-c2ncc(NC(=O)Nc3cc(C(C)(C)C(F)(F)F)on3)cn2)c[nH]c1=O [Example 181, 1-(2-(5-Ethoxy-6-oxo-1,6-dihydropyridin-3-yl)pyrimidin-5-yl)-3-(5-(1,1,1-trifluoro-2-methylpropan-2-yl)isoxazol-3-yl)urea hydrochloride]
CCOc1cc(F)c(C(F)(F)F)cc1NC(=O)Nc1ccc(-c2c[nH]c(=O)c(OCC)c2)cc1F [Example 153]
CCOc1cc(-c2ccc(NC(=O)Nc3ccc(OC4(CO)CCC4)c(C(F)(F)F)c3)c(F)c2)c[nH]c1=O [Example 134]
CC1(Oc2ccc(NC(=O)Nc3ccc(-c4ccc(=O)[nH]c4)cc3)cc2C(F)F)COC1 [Example 169]
CCOc1cc(-c2ccc(NC(=O)Nc3ccc(CC(C)(C)CO)c(C(F)(F)F)c3)c(F)c2)c[nH]c1=O [Example 64, 1-(4-(5-Ethoxy-6-oxo-1,6-dihydropyridin-3-yl)-2-fluorophenyl)-3-(4-(3-hydroxy-2,2-dimethylpropyl)-3-(trifluoromethyl)phenyl)urea]
CCOc1cc(-c2ccc(NC(=O)Nc3ccc(OC4(CO)CC4)c(C(F)(F)F)c3)c(F)c2)c[nH]c1=O [Example 123]
CCOc1cc(-c2ccc(NC(=O)Nc3ccc(CN(C)C)c(C(F)(F)F)c3)c(F)c2)c[nH]c1=O [Example 76]
CCOc1cc(Oc2ccc(NC(=O)Nc3ccc(OC4(C)COC4)c(C(F)(F)F)c3)cn2)c[nH]c1=O [Example 101]
CCOc1cc(-c2ccc(NC(=O)Nc3ccc(C(C)(C)C#N)c(C(F)(F)F)c3)c(F)c2)c[nH]c1=O [Example 135]
CCOc1cc(-c2ccc(NC(=O)Nc3cnc(OC4(C)COC4)c(C(F)(F)F)c3)c(F)c2)c[nH]c1=O [Example 148]
CCOc1cc(=O)[nH]cc1-c1ncc(NC(=O)Nc2cc(C(C)(C)C(F)(F)F)on2)c(C)n1 [Example 46, 1-(2-(4-Ethoxy-6-oxo-1,6-dihydropyridin-3-yl)-4-methylpyrimidin-5-yl)-3-(5-(1,1,1-trifluoro-2-methylpropan-2-yl)isoxazol-3-yl)urea]
CCOc1cc(-c2ncc(NC(=O)Nc3cc(-n4cnc(C)c4)cc(C(F)(F)F)c3)c(C)n2)c[nH]c1=O [Example 57, 1-(2-(5-Ethoxy-6-oxo-1,6-dihydropyridin-3-yl)-4-methylpyrimidin-5-yl)-3-(3-(4-methyl-1H-imidazol-1-yl)-5-(trifluoromethyl)phenyl)urea]
CCOc1cc(=O)[nH]cc1-c1ncc(NC(=O)Nc2ccc(CC(C)(C)N)c(C(F)(F)F)c2)c(C)n1 [Example 186, 1-(4-(2-Amino-2-methylpropyl)-3-(trifluoromethyl)phenyl)-3-(2-(4-ethoxy-6-oxo-1,6-dihydropyridin-3-yl)-4-methylpyrimidin-5-yl)urea]
CCOc1cc(-c2ncc(NC(=O)Nc3cc(-n4cnc(C)c4)cc(C(F)(F)F)c3)c(CC)n2)c[nH]c1=O [Example 56, 1-(2-(5-Ethoxy-6-oxo-1,6-dihydropyridin-3-yl)-4-ethylpyrimidin-5-yl)-3-(3-(4-methyl-1H-imidazol-1-yl)-5-(trifluoromethyl)phenyl)urea]
CCOc1cc(-c2cnc(NC(=O)Nc3ccc(CC(C)(C)CO)c(C(F)(F)F)c3)c(C)n2)c[nH]c1=O [Example 41, 1-(5-(5-Ethoxy-6-oxo-1,6-dihydropyridin-3-yl)-3-methylpyrazin-2-yl)-3-(4-(3-hydroxy-2,2-dimethylpropyl)-3-(trifluoromethyl)phenyl)urea]
CCOc1cc(-c2ccc(NC(=O)Nc3ccc(OC(C)(C)CF)c(C(F)(F)F)c3)c(F)c2)c[nH]c1=O [Example 139]
CCOc1cc(-c2cnc(NC(=O)Nc3ccc(OC4(C)COC4)c(C(F)(F)F)c3)c(C)n2)c[nH]c1=O [Example 108]
CCOc1cc(=O)[nH]cc1-c1ncc(NC(=O)Nc2ccc(CN(C)C)c(C(F)(F)F)c2)c(C)n1 [Example 55, 1-(4-((Dimethylamino)methyl)-3-(trifluoromethyl)phenyl)-3-(2-(4-ethoxy-6-oxo-1,6-dihydropyridin-3-yl)-4-methylpyrimidin-5-yl)urea]
CCOc1cc(-c2ncc(NC(=O)Nc3ccc(C(C)N(C)C)c(C(F)(F)F)c3)c(C)n2)c[nH]c1=O (stereo not shown) [Example 176, 1-(4-(1-(Dimethylamino)ethyl)-3-(trifluoromethyl)phenyl)-3-(2-(5-ethoxy-6-oxo-1,6-dihydropyridin-3-yl)-4-methylpyrimidin-5-yl)urea]
CCOc1cc(-c2ncc(NC(=O)Nc3cc(C(=O)NCCN(C)C)cc(C(F)(F)F)c3)c(C)n2)c[nH]c1=O [Example 91]
CCOc1cc(-c2ncc(NC(=O)Nc3ccc(CN(C)C)c(C(F)(F)F)c3)cn2)c[nH]c1=O [Example 179, 1-(4-((Dimethylamino)methyl)-3-(trifluoromethyl)phenyl)-3-(2-(5-ethoxy-6-oxo-1,6-dihydropyridin-3-yl)pyrimidin-5-yl)urea]
CCOc1cc(=O)[nH]cc1-c1ncc(NC(=O)Nc2ccc(CC3(C)COC3)c(C(F)(F)F)c2)c(C)n1 [Example 12, 1-(2-(4-Ethoxy-6-oxo-1,6-dihydropyridin-3-yl)-4-methylpyrimidin-5-yl)-3-(4-((3-methyloxetan-3-yl)methyl)-3-(trifluoromethyl)phenyl)urea]
CCOc1cc(-c2ncc(NC(=O)Nc3ccc(C#N)c(C(F)(F)F)c3)c(C)n2)c[nH]c1=O [Example 43, 1-(4-Cyano-3-(trifluoromethyl)phenyl)-3-(2-(5-ethoxy-6-oxo-1,6-dihydropyridin-3-yl)-4-methylpyrimidin-5-yl)urea]
CC1(Oc2ccc(NC(=O)Nc3ccc(-c4ccc(=O)[nH]c4)cc3F)cc2C(F)(F)F)COC1 [Example 147]
CC1(Oc2ccc(NC(=O)Nc3ccc(-c4c[nH]c(=O)c5cn[nH]c45)cc3F)cc2C(F)(F)F)COC1 [Example 4, 1-(2-Fluoro-4-(4-oxo-4,5-dihydro-1H-pyrazolo[4,3-c]pyridin-7-yl)phenyl)-3-(4-((3-methyloxetan-3-yl)oxy)-3-(trifluoromethyl)phenyl)urea]
CCOc1cc(=O)[nH]cc1-c1ccc(NC(=O)Nc2cc(C(F)(F)F)ccc2F)c(F)c1 [Example 128]
